Measured values from patent publication US8597649B2, “Antagonist antibodies directed against calcitonin gene-related peptide and methods using same” (Labrys Biologics, Inc., priority 2005, dated 2013).

Tests used:
[1] = tested on: middle meningeal artery (MMA) dilation evoked by electrical field stimulation; assay: Dural artery (closed cranial window) assay; format: in vivo; conditions: rat, i.v.
Experimental: Closed Cranial Window Model: The purpose of this experiment was to determine the acute effect of anti-CGRP antagonist antibodies and compare it with the acute effect of the CGRP receptor antagonist BIBN4096BS. Experiments were carried out as previously described (Williamson et al., Cephalalgia 17(4):518-24 (1997)) with the following modifications. Sprague Dawley rats (300-400 g) were anesthetized with 70 mg/kg i.p. pentobarbital. Anesthesia was maintained with 20 mg/kg/hr i.v. pentobarbital. Rats were cannulated through the jugular vein for delivery of all drugs. Blood pressure was monitored with a probe (mikro-tip catheter, Millar Instruments) threaded through the femoral artery into the abdominal aorta. The rats were tracheotomized and breathing rate was maintained at 75 breaths per minute at a volume of 3.5 mL. After fixating the head in a stereotactic instrument and removing the scalp, a 2×6 mm window in the left parietal area just lateral to the sagittal suture was made by thinning the bone with a dental drill. […] Lateral to the electrode window another window of 5×6 mm was created and filled with heavy mineral oil through which the diameter of a branch of the middle meningeal artery (MMA) was continuously monitored with a CCD camera and a video dimension analyzer (Living Systems). […] All data was recorded using chart software (ADInstruments). […]

[2] = tested on: skin vasodilatation induced by stimulation of rat saphenous nerve; assay: skin vasodilatation induced by stimulation of rat saphenous nerve; format: in vivo; conditions: 400 nmol/kg i.v., 3-5 min before stimulation, compared to the control (FIG. 2A, 2B)
Experimental: To test antagonist activity of anti-CGRP antibodies, effect of the antibodies on skin vasodilatation by stimulation of rat saphenous nerve was tested using a rat model described previously. Escott et al., Br. J. Pharmacol. 110:772-776, 1993. In this rat model, electrical stimulation of saphenous nerve induces release of CGRP from nerve endings, resulting in an increase in skin blood flow. Blood flow in the foot skin of male Sprague Dwaley rats (170-300 g, from Charles River Hollister) was measured after saphenous nerve stimulation. Rats were maintained under anesthesia with 2% isoflurane. Bretylium tosylate (30 mg/kg, administered i.v.) was given at the beginning of the experiment to minimize vasoconstriction due to the concomitant stimulation of sympathetic fibers of the saphenous nerve. Body temperature was maintained at 37° C. by the use of a rectal probe thermostatically connected to a temperature controlled heating pad. […]
For experiments shown in FIGS. […] Skin blood flow, measured as blood cell flux, was monitored with a laser Doppler flow meter. […]
For experiments shown in FIGS. 4A and 4B, saphenous nerve was exposed surgically before antibody administration. […] Skin blood flow, measured as blood cell flux, was monitored with a laser Doppler flow meter. […]

Row | Compound | time after dosing by which the effect has completely disappeared ([1]; 300 μg/kg BIBN4096BS (FIG. 9)) [min] | block of MMA dilation evoked by electrical field stimulation ([1]; acute, 10 mg/kg mu7E9, 300 μg/kg BIBN4096BS (FIG. 9)) | blood flow increase stimulated by applying electronic pulses on saphenous nerve [2]
1 | NCCCC[C@H](NC(=O)[C@@H](Cc1cc(Br)c(O)c(Br)c1)NC(=O)N1CCC(N2Cc3ccccc3NC2=O)CC1)C(=O)N1CCN(c2ccncc2)CC1 [BIBN4096BS] | ≤ 90 | blocks | 
2 | CGRP 8-37: Positive control compound CGRP 8-37 (vasodilatation antagonist) (VTHRLAGLLSRSGGVVKNNFVPTNVGSKAF) [reference compound] |  |  | inhibited
